According to the supplement of paper PMC10307832:

Assays:
Test in all cases: relative viability (nuclei count vs DMSO), 5 days (fraction); higher = more cells survive
[1] = compound: COc1cc2c(Oc3ccc4[nH]c(C)cc4c3F)ncnc2cc1OCCCN1CCCC1 [Cediranib] + C[C@]1(O)C[C@@H](c2nc(-c3ccc4ccc(-c5ccccc5)nc4c3)c3c(N)nccn32)C1 [Linsitinib] (partner 1 µM)
Summary of the method: (§1)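 Values are medians from duplicate plates. Each reflects relative viability, defined as the nuclei count of treated wells over that of vehicle wells. Lung cancer cell lines in 1536-well plates were pin-tool dosed one day after seeding with one drug alone or with a fixed anchor-drug dose plus five library-drug doses (not always all listed) in √10 steps, then fixed, stained and imaged at 4× after 5 days.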

[2] = compound: COc1cc2c(Oc3ccc4[nH]c(C)cc4c3F)ncnc2cc1OCCCN1CCCC1 [Cediranib] + Nc1nc2[nH]cc(CCc3ccc(C(=O)N[C@@H](CCC(=O)O)C(=O)O)cc3)c2c(=O)[nH]1 [Pemetrexed] (partner 0.2 µM)
Summary of the method: as §1

[3] = compound: COc1cc2c(Oc3ccc4[nH]c(C)cc4c3F)ncnc2cc1OCCCN1CCCC1 [Cediranib] + Cc1cc(Nc2cc(N3CCN(C)CC3)nc(Sc3ccc(NC(=O)C4CC4)cc3)n2)n[nH]1 [Tozasertib] (partner 0.1 µM)
Summary of the method: as §1

[4] = compound: Nc1ncn([C@H]2C[C@H](O)[C@@H](CO)O2)c(=O)n1 [Decitabine] + CC(C)C[C@H](NC(=O)[C@H](Cc1ccccc1)NC(=O)c1cnccn1)B(O)O [Bortezomib] (partner 0.002 µM)
Summary of the method: as §1

UMC-11
relative viability ([1]; first compound 0.04 µM): 1.06
relative viability ([1]; first compound 0.1265 µM): 1.02
relative viability ([1]; first compound 0.4 µM): 0.955
relative viability ([1]; first compound 1.265 µM): 0.957
relative viability ([1]; first compound 4 µM): 0.934
relative viability ([2]; first compound 0.04 µM): 0.848
relative viability ([2]; first compound 0.1265 µM): 0.752
relative viability ([2]; first compound 0.4 µM): 0.738
relative viability ([2]; first compound 1.265 µM): 0.824
relative viability ([2]; first compound 4 µM): 0.764
relative viability ([3]; first compound 0.04 µM): 0.213
relative viability ([3]; first compound 0.4 µM): 0.201
relative viability ([3]; first compound 4 µM): 0.2
relative viability ([4]; first compound 0.04 µM): 0.681
relative viability ([4]; first compound 0.1265 µM): 0.58
relative viability ([4]; first compound 0.4 µM): 0.31
relative viability ([4]; first compound 1.265 µM): 0.275
relative viability ([4]; first compound 4 µM): 0.252
